From US20170202939A1, “PERSONALIZED CANCER VACCINES AND METHODS THEREFOR” (Washington University, priority 2014, published 2017)
No end group written: not given here.

Legend:
[1] = tested on: neoantigen-specific T cells; assay: cytokine production by neoantigen-specific T cells (MILLIPLEX / IFN-γ ELISA); assay type: cell-based, human; conditions: upon antigen stimulation, supernatants at 24 h
Protocol: For analysis of cytokines secreted by T cells upon SCT activation, cultures were activated 14 d after SCT or AT-SCT stimulation, T cells were restimulated with SCT at 1:1 ratio in RPMI 1640 supplemented with 5% pooled human sera (RPMI-5), supernatants were collected 24 h after activation and characterized using a MILLIPLEX® cytokine kit (Millipore, Billerica, Mass.), per the manufacturer's instructions.
(§1) For functional characterization, neoantigen-specific T cell lines were generated using autologous mDC and antigen loaded artificial antigen presenting cells at a ratio of 1:1 as previously described (Carreno, B. M., et al., J. Immunol., 188, 5839-5849, 2012). […] For production of cytokines, neoantigen-specific T cells were restimulated using artificial antigen presenting cells in the presence or absence of peptide, supernatants collected at 24 h and cytokine produced determined using MILLIPLEX® MAP Human Cytokine Panel I (EMD Millipore).
Substantial evidence supports the hypothesis that Th2/Tc2 immune polarization correlates with worse disease outcome in patients with cancer (Fridman, W. H., et al., Nat. Rev. Cancer, 12, 298-306, 2012). […] Thus, we determined production of cytokines upon antigen stimulation as described above. […] Cytokine production was determined using a multi-plex bead assay. […]

[2] = tested on: peptide-pulsed T2 (HLA-A*02:01) cells; assay: 4 h 51Cr-release assay with peptide titrations on T2 cells (peptide avidity, AAS vs WT recognition); assay type: cell-based, human; conditions: peptide presented on T2 cells
Protocol: ^51Cr release assays to measure specific lysis have been described previously (Carreno, B. M., et al., Immunol. Cell Biol., 87: 167-177, 2009; Linette, G. P. et al., Clin. Cancer Res. 11, 7692-7699, 2005). Melanoma cell lines DM6 (HLAA2+ gp100+) and A375 (HLA-A2+gp100−) were labeled with 25 μCi ^51Cr for 1 hour, washed, and tested as targets in a standard 4-hour assay. Effectors were generated using PBMCs collected after D3 and cultured for 12 days in the presence of peptide (40 μg/ml) and IL2 (50 U/ml every other day). Vaccine-induced antigen-specific T cells were characterized using HLAA*0201/peptide dextramers (Immudex). To determine the avidity (effective concentration at 50% maximal lysis) of vaccine-induced T cells for antigen, T2 cells were pulsed with titrated G209-2M or G280-9V peptide concentrations for 1 hour in serum-free media followed by 51Cr (25 μCi) labeling for 1 hour, washed twice, and tested using vaccine-induced gp100-specific T cells in a standard 4-hour assay.
as §1
To examine cross-reactivity, T2 cells were pulsed with MUT or WT peptide at the indicated concentrations, labeled with ^51CR-chromium and used as target in a cytotoxic assay. Vaccine-induced T cells were incubated with peptide-pulsed T2 cells and ^51Cr-Chromium release measured at 4 h. […]
FIG. 34 illustrates that neoantigen-specific T cells recognition of AAS (closed circles) and WT (open circles) peptides was determined in a standard 4 h ^51Cr-release assay using peptide titrations on T2 (HLAA*02:01) cells. […]

| Sequence | cytokine phenotype of neoantigen-specific T cells (IFN-γ relative to IL-4, IL-5, IL-13) [1] | T cell discrimination between mutated (AAS) and wild-type peptide [2] | T cell discrimination between mutated (AAS) and wild-type peptide ([2]; listed as OR8B3) | T cell discrimination between mutated (AAS) and wild-type peptide ([2]; listed as OR8B3 T190I) |
| --- | --- | --- | --- | --- |
| CLNEYHLFL | mixed phenotype |  |  |  |
| KLMNIQQKL | Tc1 phenotype | can discriminate between peptide sequence containing single an changes |  |  |
| QLSCISTYV |  |  | cannot discriminate between MUT and WT sequences | could not discriminate between AAS and wild-type (WT) peptide |
